Laboratory results: patent US20240285808A1, “MOLECULAR PROBES FOR IN VIVO DETECTION OF ALDEHYDES” (The General Hospital Corporation, priority 2021, published 2024)

Experiments:
[1] = tested on: ECM proteins from fibrotic rat liver; test: Relaxivity measurements in ECM; assay type: binding; conditions: for relaxivity in ECM: PBS, pH 7.4, 2 h, 37° C., 1.41T; for relaxivity in ECM with 100-fold excess of hydrazine: aldehydes blocked with N2H4
Description: Liver fibrosis was induced in male Sprague Dawley rats by ligation of the common bile duct (CD®, Charles River Labs, Wilmington, MA). Ten days after common bile duct ligation, the fibrotic liver was harvested and sequential extractions were performed using the CNMCS (Cytosol/Nucleus/Membrane/Cytoskeleton) Compartmental Protein Extraction kit (Cytomol, Union City, CA) according to manufacturer's instructions. In brief, frozen tissues (150-200 mg) were homogenized and with solvents provided in the kit to sequentially to remove: cytosolic proteins, nuclear proteins, membrane proteins, and cytoskeletal proteins, leaving a final insoluble fraction enriched for ECM proteins.
Relaxivity Measurements in ECM
The enriched ECM proteins from 800 mg of fibrotic rat liver were suspended in 1 ml PBS. The ECM protein concentration was about 10% (5 mg in a 50 μL aliquot determined by weight after lyophilization). An aliquot of the solution (50 μL) was treated for 2 h at 37° C. with the corresponding molecular probe at a range of concentrations (0.01-0.1 mM) and then longitudinal (T1) relaxation measurements was recorded using a Bruker mq60 Minispec at 1.41 T and 37° C. For the blocking experiment with N2H4, a 100 fold-excess of N2H4 referred to the concentration of molecular probe was added to the solution before the incubation. Longitudinal (T1) relaxation times were measured via an inversion recovery experiment using 10 inversions of duration ranging between 0.05×T1 and 10×T1. Relaxivity (r1) was determined from the slope of a plot of 1/T1 vs metal concentration for 4 concentrations.

[2] = Affinity measurements of Gd^3+ complex with butyraldehyde (HPLC-ICP-MS); assay type: physicochemical
Description: FIG. 43A. […] FIG. 43B. Affinity measurements of Gd^3+ complex with butyraldehyde. Concentration-dependent binding of the probes to butyraldehyde as determined by HPLC-ICP-MS (pH 7.4 in PBS, 12 h).

BSA-ALD = molecular target: T1, BSA-ALD (Bos taurus, UniProt P02769); test: Binding yield measurements of Gd^3+ complex with BSA^Ald (ultrafiltration, ICP-MS); set-up: species or system bovine; conditions: pH 7.4, PBS, 37° C., 12 h, ultrafiltration 5,000 Da cut-off
T1 construct: made in house; host or cells: no expression host: BSA oxidised chemically with sodium ascorbate, ferric chloride and H2O2, then desalted on PD-10
T1 sequence (P02769 25-607): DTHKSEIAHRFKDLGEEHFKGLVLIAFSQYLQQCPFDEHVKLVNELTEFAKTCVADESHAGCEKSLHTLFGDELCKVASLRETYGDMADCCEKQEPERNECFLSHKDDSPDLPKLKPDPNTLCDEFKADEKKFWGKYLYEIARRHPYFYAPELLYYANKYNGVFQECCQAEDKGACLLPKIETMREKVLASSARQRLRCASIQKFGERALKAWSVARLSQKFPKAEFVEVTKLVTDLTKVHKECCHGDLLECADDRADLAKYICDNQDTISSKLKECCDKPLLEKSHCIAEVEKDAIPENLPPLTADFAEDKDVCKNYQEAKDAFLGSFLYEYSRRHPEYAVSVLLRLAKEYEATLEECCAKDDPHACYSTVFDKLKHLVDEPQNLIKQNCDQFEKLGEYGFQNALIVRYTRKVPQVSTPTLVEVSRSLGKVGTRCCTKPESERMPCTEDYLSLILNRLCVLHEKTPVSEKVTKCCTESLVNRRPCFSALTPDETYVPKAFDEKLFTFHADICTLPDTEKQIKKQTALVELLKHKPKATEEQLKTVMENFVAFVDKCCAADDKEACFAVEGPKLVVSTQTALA
Description: FIG. 48. […] Binding concentration of the probes to BSA^Ald (pH 7.4, PBS, 37° C., 12 h) as determined by ICP-MS following an ultrafiltration (5,000 Da cut-off) to separate the protein-bound probe from the unbound probe. Slope gives the binding yield.
Alternatively, preparation of BSA^Ald and binding of Gd^3+ probe to protein was carried out according to modified procedures. To a solution of bovine serum albumin (BSA) (100 mg) dissolved in phosphate buffered saline (4 mL, pH 7.4, 0.25 mM) was added sodium ascorbate (20 mg), ferric chloride (120 μL, 10 mM) and 20 μL H2O2 (30% w). The reaction was stirred at 37° C. for 24 h, and sodium ascorbate (20 mg) was added repeatedly every 8 h. After 24 h, the protein was purified using PD-10 Sephadex G25 desalting columns (GE Healthcare), eluted with PBS. Protein concentration was assessed using the ‘Micro BCA Protein Assay Kit’ (Thermo Scientific, 23235). Protein carbonyl concentration was determined by ‘Protein Carbonyl Content Assay Kit’ (Sigma-Aldrich, MAK094-1KT). […] The protein solutions were kept at a concentration of 20 mg/mL for further use.

[3] = Reaction rates with butyraldehyde by UV-visible measurements (Method D); assay type: physicochemical; conditions: for k (second order / condensation rate constant): Method d: butyraldehyde 1 mM, Mn complex 0.04-0.10 mM, 25° C., PBS, absorbance 220 nm
Description: Method D: Reaction Rates with UV-Visible Measurements.
The molar extinction coefficient at 220 nm (ε220) of Mn-15, Mn-16 and Mn-17 was calculated using Beer-Lambert Law: A220=ε220Cl; where A220 is the absorbance at wavelength 220 nm, C is the concentration (M), and l is the cell path length (cm).
The kinetics for reactions of Mn-15, Mn-16 and Mn-17 with butyraldehyde were monitored spectrophotometrically by measuring the change in absorbance at 220 nm. All reactions were carried out at 25° C. in PBS. In each experiment [butyraldehyde]=1 mM and the concentrations of Mn-complex, 0.04 mM, 0.06 mM, 0.08 mM, and 0.10 mM, were varied to estimate the rate law.
At the beginning of the reaction (t=0), the concentration of the starting Mn complex is a0 and the concentration of the aldehyde condensation product is zero. After time t the concentration of the product is x, and the concentration of remaining Mn complex starting material is a0-x. For a first-order reaction
where I is the constant of integration and kobs is the observed rate constant. The rate law and a corresponding second order rate constant k were estimated by plotting reaction velocity as a function of Mn—N(where Mn—N refers to Mn-15, Mn-16, or Mn-17) concentration.
The concentration of Mn—N-Ald (where Mn-Ald refers to the reaction product with either Mn-15, Mn-16, or Mn-17) can be estimated by the following equations, where A0 is the absorbance of Mn—N and A is the absorbance of reaction mixture after time t,
The novel Mn-PC2A derivatives (FIG. 1A) were synthesized in 6 steps from the pyclen macrocycle. Hydrazone formation kinetics with butyraldehyde as a model compound were measured by UV spectroscopy at 220 nm, 25° C., pH 7.4, PBS. Hydrazone hydrolysis kinetics were measured by HPLC with UV detection at 220 nm using excess formaldehyde to trap the liberated hydrazine and prevent the reverse reaction. Allysine-modified BSA (BSA-Ald, 17.4 mg/mL, […] aldehyde) as a soluble model protein or BSA (17.3 mg/mL, 16.8 μM aldehyde) and Mn-15 or Mn-17 (50-200 μM) were incubated at 37° C. for 3 hours, and 1/T1 was measured at 1.4 T, 37° C., and plotted vs concentration to obtain relaxivity. The protein bound probe was isolated by ultrafiltration and the relaxivity of the protein-bound fraction measured. All Mn concentrations were measured by ICP-MS. Liver fibrosis was induced in male C57BL/6 mice by oral gavage with CCl4 for 12 weeks, 2-3 times per week, while control mice received vehicle (olive oil). 3D FLASH images (TR/TE/FA=15 ms/2 ms/30°, 0.25 mm^3 spatial resolution) were acquired on a 4.7 T Bruker Biospec prior to and dynamically for 40 min p.i. of 100 μmol/kg Mn-15. Liver to muscle contrast to noise was calculated as CNR=(SILiver−SIMuscle)/SDAir where SI=signal intensity and SD=standard deviation in SI.

Row | SMILES | relaxivity in ECM [1] [mM⁻¹ s⁻¹] | relaxivity in ECM with 100-fold excess of hydrazine [1] [mM⁻¹ s⁻¹] | fold improved affinity over Gd-11 and Gd-CHyd [2] [fold] | equilibrium binding to BSA^Ald (binding yield) (BSA-ALD) [%] | fold higher condensation (hydrazone formation) rate constant compared to Mn-17 [3] [fold] | k (second order / condensation rate constant) [3] [M⁻¹ s⁻¹]
1 | NN1CCN(C(=O)CCC(C(=O)[O-])N2CCN(CC(=O)[O-])CCN(CC(=O)[O-])CCN(C(CCC(=O)N3CCN(N)CC3)C(=O)[O-])CC2)CC1.[Gd+3] (stereo not drawn) [Gd-9, cis-1,4-Gd-(CHyd)2] | 7.8 | 6.6 | 2 | 39.2 | – | –
2 | NN1CCN(C(=O)CCC(C(=O)[O-])N2CCN(CC(=O)[O-])CCN(C(CCC(=O)N3CCN(N)CC3)C(=O)[O-])CCN(CC(=O)[O-])CC2)CC1.[Gd+3] (stereo not drawn) [Gd-10, trans-1,7-Gd-(CHyd)2] | 7.2 | 6.7 | 2 | 28.1 | – | –
3 | NNC(CCC(=O)NCCCN1CCN(CC(=O)[O-])Cc2cccc(n2)CN(CC(=O)[O-])CC1)C(=O)O.[Mn+2] (stereo not drawn) [Mn-15] | – | – | – | – | 3 | 12.1
4 | NOC(CCC(=O)NCCCN1CCN(CC(=O)[O-])Cc2cccc(n2)CN(CC(=O)[O-])CC1)C(=O)O.[Mn+2] (stereo not drawn) [Mn-16] | – | – | – | – | – | 2.5
5 | NNCC(=O)NCCCN1CCN(CC(=O)[O-])Cc2cccc(n2)CN(CC(=O)[O-])CC1.[Mn+2] [Mn-17] | – | – | – | – | – | 4.6
